Experimental data reported in US20080107727A1, “Multiple Unit Oral Sustained Release Preparation and Production Method Thereof” (priority 2005, published 2008).

Assay: Gastrointestinal absorption of imidafenacin in rats, in-situ loop technique
Format: in vivo, Male Wistar rats
Details: rat in-situ loop, 0.2 mL of 500 μg/mL isotonic solution, after 1 hour
Experimental: In designing oral sustained release preparations of imidafenacin, it is necessary to know the absorption properties of imidafenacin in the gastrointestinal tract. We therefore examined the gastrointestinal absorption properties of imidafenacin in rats using the in-situ loop technique. The specific procedures were as follows: Male Wistar rats (aged 7 to 9 weeks) were dissected under anesthesia with pentobarbital sodium and the common bile duct was ligated. Loops were prepared from the stomach, duodenum, jejunum, ileum and colon. 0.2 mL each of an isotonic solution (500 μg/mL) of imidafenacin was injected into the loops in […]. After 1 hour, the lumen of the loops was washed sequentially with water and 0.01 mol/L hydrochloric acid and the wash was collected from each loop. The concentration of imidafenacin in the wash was determined by high performance liquid chromatography. The standard curve was determined by applying the least squares method to the ratio of the peak areas between the imidafenacin concentration for a similarly treated standard specimen and the concentration of internal standard of imidafenacin determined by chromatography. The concentration of imidafenacin in the wash for a specimen was determined by substituting the ratio of the peak area into the standard curve. The absorption of imidafenacin for each loop was calculated by the equations (1) and (2) below. The results are shown in FIG. 5. % Remaining imidafenacin in a loop=(Conc. of imidafenacin in the wash for the loop)×25 (1) % Absorption of imidafenacin in a loop=100-% Remaining imidafenacin in that loop (2)

Cc1nccn1CCC(C(N)=O)(c1ccccc1)c1ccccc1 [imidafenacin, 4-(2-methyl-1-imidazolyl)-2,2-diphenylbutylamide]
absorption of imidafenacin in colon loop: Some absorption | absorption of imidafenacin in small intestine loops (duodenum, jejunum, ileum): effectively absorbed | absorption of imidafenacin in stomach loop: less significant
